The values that follow come from US4002690A (priority 1974, dated 1977).

The subject of experiment [1] is Newcastle disease virus (NDV). As to the kind of experiment: microbe, parasite or virus in culture. The experiment is classed as cell-based, Newcastle disease virus (host: chick embryo). The conditions noted are these: for inhibition at 39 µg/mL / inhibition at 78 µg/mL / inhibition at 156 µg/mL: avian paramyxovirus 1, in Gallus gallus, 48 h, read-out: % Inhibition of NDV Multiplications.

Experiment [2] can be described thus: Antiviral activity in vivo (statement only). Particulars: no test details given.

Where a name gives a salt, the structure may show the parent alone.

In general, inhibition refers to how much of the control response was suppressed. Take `NC12CC3CC(CC(C3)C1)C2` [Amantadine.HCl, reference compound]: in experiment [1], the inhibition at 39 µg/mL worked out at 0%, the inhibition at 78 µg/mL is 0% and the inhibition at 156 µg/mL is 0%.

`OCC12CCCC3CC(CCC31)C2` (stereo not drawn) [II]: the “antiviral activity compared with Amantadine hydrochloride” value in experiment [1] (NDV, in vitro, chick embryo monolayer tissue culture) was “extremely superior to that of Amantadine hydrochloride”. Further, in experiment [1], the inhibition at 39 µg/mL stood at 0%, the inhibition at 78 µg/mL came out at 91.2% and the inhibition at 156 µg/mL came to 99.8%. Also, in experiment [1] (containing above 39 μg/ml of carbinol (II)), the “virus replication in the tissue culture” value is given as “almost completely inhibited”. In experiment [2], the “antiviral activity in vivo” value was “potent antiviral activity in vivo”.
